Test results taken from US20120328696A1, “ANTI-PARKINSONIAN COMPOUND ACETYLSALICYLIC ACID MALTOL ESTER” (Hutecs Korea Pharmaceutical Co., Ltd., priority 2008, published 2012).

How the values were obtained:
Type in all cases: in vivo
[1] = test system: GPx-1 (+/+)- and GPx-1 (−/−)-mice; assay: Locomotor activity after MA; conditions: MA 8 mg/kg i.p. x4, GPx-1 (+/+) and (−/−) mice
Description: (§1) The mice received four times of MA (8 mg/kg, ip) or saline as a 2 hr-time interval. Chemicals (AME, EBS, and PKC inhibitors) were administrated for 5 consecutive days (twice daily), and were given 2 times at 4 hr and 30 min before the first MA injection as shown in the experimental schedule. Animals were sacrificed at 4 hrs and 3 days after the final MA administration.
Locomotor activity was measured for 30 min 3 days after the last MA administration using an automated video-tracking system (Noldus Information Technology, Wagenin, The Netherlands). Four test boxes (40×40×30 cm high) were operated simultaneously by an IBM computer. Mice were studied individually during locomotion in each test box, where they were adapted for 5 min before starting the experiment. […] The distance traveled in cm by the animals in horizontal locomotor activity was analyzed. Data were collected and analyzed between 09:00 and 17:00 h (Kim et al., 2001).

[2] = test system: phospho MDM2-ser 166; assay: Striatal phospho-MDM2 expression after MA (western blot); conditions: p.o.; AME 50, EBS 20, rottlerin 20 mg/kg; MA 8 mg/kg i.p. x4; GPx-1 (+/+) and (−/−) mice
Description: as §1
(§2) The western blot assays was performed as described previously (Kim et al., 2003). Tissues were homogenized in lysis buffer, containing 200 mM Tris HCl (pH 6.8), 1% SDS, 5 mM EGTA (ethylene glycol tetraacetic acid), 5 mM EDTA (ethylenediaminetetraacetic acid), 10% glycerol, 1× phosphatase inhibitor cocktail I, 1× protease inhibitor cocktail. Lysate was centrifuged at 12,000×g for 30 min and supernatant fraction was used for Western blot analysis. Proteins (20-50 ug/lane) were separated by 6%, 8%, 10% or 15% sodium dodecyl sulfate-polyacrylamide gel electrophoresis and transferred onto the PVDF membranes. Following transfer, the membranes were preincubated with 5% non-fat milk and incubated overnight at 4° C. with primary antibody against β-actin (1:50000, Sigma, St. Louis, Mo., USA), TH (1:5000, Chemicon), TH phosphor-Ser 19 (1:1000, Chemicon,), TH phosphor-Ser 31 (1:500, Chemicon), TH phosphor-Ser 40 (1:500, Chemicon), F4/80 (1:500, Serotec), GPx1 (1:2500, AbFrontier), PKC (1:5000, Santa Cruz biotechnology, Santa Cruz, Calif., USA), p53 (1:5000, Cell signaling, Beverly, Mass., USA), MDM2 (1:1000, BD Pharmingen, San Jose, Calif., USA), MDM2 phospho-Ser 166 (1:1000, cell signaling), BDNF (1:500, Chemicon), GDNF (1:250, Santa Cruz), COX-2 (1:2000, Cayman, Ann Arbor, MC, USA), IL-6 (1:2000, Abcam, Cambridge, Mass., USA), TNF-a (1:1000, R&D Systems, Mckinley place NE, NM, USA), IFN-γ (1:500, Chemicon) or Iba-1 (1:500, Wako, Osaka, Japan). And then, membranes were incubated with HRP-conjugated secondary anti-rabbit IgG (1:1000, GE healthcare, Piscataway, N.J., USA), anti-mouse IgG (1:1000, Sigma) or anti-goat IgG (1:1000, Sigma) for 2 h. […]

[3] = test system: GPx-1; assay: Striatal glutathione peroxidase (GPx) activity after MA; conditions: p.o.; AME 50, EBS 20, rottlerin 20 mg/kg; MA 8 mg/kg i.p. x4; GPx-1 (+/+) mice
Description: as §1
GPx were immediately measured from dissected striatal tissues. The tissues were sonicated in ice-cold 50 mM potassium phosphate buffer (pH 7.4, containing 2 mM EDTA), and were centrifuged at 11,000×g for 15 min at 4° C. The resulting supernatants were collected and the protein concentrations were quantified with the Quant-iT assays, using the Qubit™ fluorometer (Invitrogen, Carlsbad, Calif., USA). Cellular GPx activity was measured by the method of Paglia and Valentine (1967) with minor modification (Shin et al., 2008). The incubation mixture contained 1 mM glutathione, 0.2 mM NADPH, and 1.4 IU glutathione reductase in 0.05 M potassium phosphate buffer, pH 7.0. The reaction was initiated by the simultaneous addition of supernatant (0.3-0.8 mg protein) and 0.25 mM H2O2. The change in absorbance at 340 nm was followed by for 4.5 min and 1 UI of GPx activity was defined as the amount required to oxidize 1 μM NADPH/min, based on the molar absorptivity of […] for NADPH.

[4] = test system: PKCδ; assay: Striatal PKCδ-like immunoreactivity after MA (immunocytochemistry); conditions: p.o.; AME 50, EBS 20, rottlerin 20 mg/kg; MA 8 mg/kg i.p. x4; GPx-1 (+/+) and (−/−) mice
Description: as §1
Animals were sacrificed at 4 hours and 3 days after the last MA injection. They were anesthetized with 60% urethane and perfused transcardially with 50 ml of 50 mM phosphate buffered saline (PBS), followed by 50 ml of a mixture of 4% paraformaldehyde in PBS. The rate of perfusion was 50 ml/min. The brains were removed, post-fixed at 4° C. for 24 h in the same fixative and then cryoprotected in 30% sucrose in PBS.
The immunocytochemistry was performed as described previously (Kim et al., 2000a, b). Briefly, prior to incubation with the primary antibodies, sections were preincubated with 0.3% hydrogen peroxide in PBS for 30 min (to block endogenous peroxidase activity), then in PBS containing 0.4% Triton X-100 for 20 min and 1% normal serum for 20 min. The sections were then incubated for 48 h at 4° C. in primary antibody against tyrosine hydroxylase (1:500, Chemicon, Termecula, Calif., USA), GPx1 (1:500, AbFrontier, Seoul, Korea), PKC (1:200, Santa Cruz biotechnology INC, CA, USA) or F4/80 (1:50, Serotec, Raleigh, N.C., USA). The sections were further incubated with secondary biotinylated antisera (1:1000 dilution; Vector, Brulingame, Calif.) for 1 hr, and immersed in avidin-biotin-peroxidase complex (ABC Elite kit, Vector) for 1 hr. Sections were always washed three times with PBS (pH 7.4) between each incubation step. 3,3′-diaminobenzidine (DAB) was used as a chromogen.

[5] = test system: interferon (IFN)-γ; assay: IFN-γ expression after MA (western blot); conditions: p.o.; AME 50, EBS 20, rottlerin 20 mg/kg; MA 8 mg/kg i.p. x4; GPx-1 (+/+) and (−/−) mice
Description: as §1, §2

[6] = test system: glial cell line-derived neurotrophic factor (GDNF); assay: Striatal GDNF expression after MA (western blot); conditions: p.o.; AME 50, EBS 20, rottlerin 20 mg/kg; MA 8 mg/kg i.p. x4; GPx-1 (+/+) and (−/−) mice
Description: as §1, §2

[7] = p.o., AME 25 or 50, EBS 10 or 20, rottlerin 10 or 20 mg/kg

SMILES	effect on MA-induced impairment in locomotor activity [1, 7]	effect on MA-induced decrease in phospho-MDM2 expression [2]	effect on MA-induced decrease in striatal GPx-1 activity [3]	effect on MA-induced increase in striatal PKCδ-IR [4]	effect on MA-induced increase in IFN-γ expression [5]	effect on MA-induced reduction in GDNF expression [6]	effect on MA-induced impairment in locomotor activity ([1]; PKC inhibitors intra-striatal (chelerythrine 0.2 ug/head, rottlerin 3.0 ug/head significant))
O=c1c2ccccc2[se]n1-c1ccccc1 [EBS, 2-phenyl-1,2-benzisoselenazol-3(2H)-one]	inhibited these effects in a dose-dependent manner	significantly attenuated	inhibited MA-induced decrease	significantly attenuated MA-induced increase in striatal PKCδ-IR	significantly and consistently attenuating effects	significantly attenuated these reductions	
CC(=O)c1c(O)c(C)c(O)c(Cc2c(O)c3c(c(C(=O)/C=C/c4ccccc4)c2O)OC(C)(C)C=C3)c1O [rottlerin]	inhibited these effects in a dose-dependent manner	significantly attenuated	inhibited MA-induced decrease	significantly attenuated MA-induced increase in striatal PKCδ-IR	significantly and consistently attenuating effects	significantly attenuated these reductions	attenuated the MA-behavioral impairments in a dose-dependent manner
CC(=O)Oc1ccccc1C(=O)Oc1c(C)occc1=O [AME, 3-(2-methyl-4-pyronyl)-2-acetyloxybenzoate]	inhibited these effects in a dose-dependent manner	significantly attenuated	inhibited MA-induced decrease	significantly attenuated MA-induced increase in striatal PKCδ-IR	significantly and consistently attenuating effects	significantly attenuated these reductions	
